From patent US5013841A, “Oxo quinoline derivatives” (Dainippon Pharmaceutical Co., Ltd., priority 1987, dated 1991)
Converted amounts (≈) assume the structure as drawn. Read-outs that look alike come from different tables or passages of the source.

Legend:
[1] = tested on: E. coli NIHJ JC-2; test: In vitro antibacterial activity (twofold agar-dilution method); format: cell-based; settings: Escherichia coli, NIHJJC2; E. coli NIHJ JC-2; agar dilution, 20 h, 37° C., calculated for free base; read-out: minimum inhibitory concentration (MIC)
Procedure: (§1) The figures in the table show minimum inhibitory concentrations (MIC) (μg/ml), calculated for free base. The minimum inhibitory concentration was determined by the twofold agar-dilution method, which was recommended by Japan Society of Chemotherapy (Chemotherapy, 29(1), 76(1981)), using Muller-Hinton agar. One loopful of an overnight culture of test organisms in Mueller-Hinton broth was inoculated onto 10-ml drug-containing agar layers in petri dishes. Bacterial inocula contained approximately 10^6 colonyl-formingunits. Bacterial growth was observed after 20-hour incubation at 37° C. The MIC was defined as the lowest drug concentration which prevented visible bacterial growth.

[2] = tested on: E. coli P-5101; test: as above; format: cell-based; settings: Escherichia coli, P5101; E. coli P-5101; agar dilution, 20 h, 37° C., calculated for free base; read-out: minimum inhibitory concentration (MIC)
Procedure: as §1

[3] = tested on: Flavobacterium sp P-7201; test: as above; format: cell-based; settings: read-out: minimum inhibitory concentration (MIC)
Procedure: as §1

[4] = tested on: P. Aeruginosa 12; test: as above; format: cell-based; settings: Pseudomonas aeruginosa, 20 h, read-out: minimum inhibitory concentration (MIC)
Procedure: as §1

[5] = tested on: S. aureus 209 JC-1; test: as above; format: cell-based; settings: Staphylococcus aureus, read-out: minimum inhibitory concentration (MIC)
Procedure: as §1

[6] = tested on: S. aureus Terajima; test: as above; format: cell-based; settings: Staphylococcus aureus, 20 h, read-out: minimum inhibitory concentration (MIC)
Procedure: as §1

[7] = tested on: S. marcescens IFO 3736; test: as above; format: cell-based; settings: Serratia marcescens, IFO3736; S. marcescens IFO 3736; agar dilution, 20 h, 37° C., calculated for free base; read-out: minimum inhibitory concentration (MIC)
Procedure: as §1

[8] = tested on: Staphylococcus aureus 50774; format: in vivo, Staphylococcus aureus (male mice, Std-ddY); settings: Staphylococcus aureus, 50774, 336 h; mice, oral, twice (immediately and 6 h after intravenous infection), 14 days, calculated for free base; read-out: median effective dose (ED50)
Excerpt: Staphylococcus aureus 50774
Intravenous infection with 5×10^8 cells per mouse suspended in saline.
For 7 days for other organisms.

[9] = tested on: Streptococcus pneumoniae 1 Neufeld; format: in vivo, Streptococcus pneumoniae (male mice, Std-ddY); settings: 336 h, mice, oral, four times (immediately, 6, 24 and 30 h after intraperitoneal infection), 14 days, calculated for free base, read-out: median effective dose (ED50)
[10] = Urinary excretion in mice (thin-layer cup-plated method, Escherichia coli Kp indicator); format: in vivo; settings: mouse, urine, oral, 5 mg/kg, read-out: Urinary recovery for 24 hours
Procedure: A suspension containing each of compounds was orally administered to mice at a dose of 5 mg/kg. Urine was collected over a period of 24 hours after adminstration. The levels of the compounds in urine were determined by the thin-layer cup-plated method using Escherichia coli Kp as an indicator organism.

[11] = tested on: Streptococcus pyogenes A65; settings: A65, in Mus musculus, po, 168 h, read-out: median effective dose (ED50)
[12] = tested on: Pseudomonas aeruginosa 12; settings: Pseudomonas aeruginosa, 12, in Mus musculus, po, 168 h, read-out: median effective dose (ED50)

Row | SMILES | MIC [1] [µg/mL] | MIC [2] [µg/mL] | MIC ([3]; Flavobacterium, P7201, 20 h) [µg/mL] | MIC [4] [µg/mL] | MIC ([5]; 209JC1, 20 h) [µg/mL] | MIC [6] [µg/mL] | MIC [7] [µg/mL] | ED50 [8] [mg/kg] | ED50 [9] [mg/kg] | dose excreted at 24 h [10] [%] | ED50 [11] [mg/kg] | ED50 [12] [mg/kg] | MIC ([3]; P7201, Flavobacterium sp P-7201, agar dilution, 20 h, 37° C., calculated for free base) [µg/mL] | MIC ([4]; P. Aeruginosa 12, agar dilution, 37° C., calculated for free base) [µg/mL] | MIC ([5]; 209JC1, S. aureus 209 JC-1, agar dilution, 20 h, 37° C., calculated for free base) [µg/mL] | MIC ([6]; S. aureus Terajima, agar dilution, 37° C., calculated for free base) [µg/mL]
1 | C[C@@H]1CN(c2cc3c(c(N)c2F)c(=O)c(C(=O)O)cn3C2CC2)C[C@H](C)N1 [Compound 2, 5-amino-1-cyclopropyl-6-fluoro-7-(cis-3,5-dimethyl-1-piperazinyl)-1,4-dihydro-4-oxoquinoline-3-carboxylic acid] | 0.025 (≈ 0.0668 µM) | 0.025 (≈ 0.0668 µM) | 0.1 (≈ 0.267 µM) | 0.39 (≈ 1.04 µM) | 0.1 (≈ 0.267 µM) | 0.05 (≈ 0.134 µM) | 0.78 (≈ 2.08 µM) | 1.41 | 10.2 | 8.33 | 11.6 | 1.98 | – | – | – | –
2 | Nc1c(F)c(N2CCNCC2)cc2c1c(=O)c(C(=O)O)cn2C1CC1 [Compound 1] | 0.0063 (≈ 0.0182 µM) | 0.0063 (≈ 0.0182 µM) | – | – | – | – | 0.1 (≈ 0.289 µM) | – | – | – | – | – | 0.1 (≈ 0.289 µM) | 0.05 (≈ 0.144 µM) | 0.025 (≈ 0.0722 µM) | 0.05 (≈ 0.144 µM)
